Test results reported in PMC6271395, “Synthesis and Biological Activities of Some New (N^α-Dinicotinoyl)-bis-L-Leucyl Linear and Macrocyclic Peptides” (Molecules, 2014).

Key:
Bacillus subtilis = experiment: Agar diffusion antimicrobial test, Bacillus subtilis; format: cell-based; conditions: Gram+ve, modified Kirby–Bauer disk diffusion, 10 µg/mL
Method: (§1) The newly synthesized compounds 3–12 were tested for their preliminary antimicrobial activity against different microorganisms representing Gram-positive (Bacillus subtilis, Bacillus aureus and Staphylococcus aureus), Gram-negative bacteria (Escherichia coli), yeast (Candida albican) and fungi (Aspergillus niger).
(§2) The antimicrobial activities of the synthesized compounds were determined by the agar diffusion method as recommended by the national committee for clinical laboratory standards (NCCLS). The concentrations of the tested compounds (10 µg/mL) were used according to modified Kirby–Bauer’s disk diffusion method. The degree of inhibition is measured in comparison with that of chloramphinicol and fusidic acid taken as standards.

Staphylococcus aureus = experiment: Agar diffusion antimicrobial test, Staphylococcus aureus; format: cell-based; conditions: Gram+ve, modified Kirby–Bauer disk diffusion, 10 µg/mL
Method: as §1, §2

Candida albicans = experiment: Agar diffusion antimicrobial test, Candida albicans; format: cell-based; conditions: Yeast, modified Kirby–Bauer disk diffusion, 10 µg/mL
Method: as §1, §2

Bacillus aureus = experiment: Agar diffusion antimicrobial test, Bacillus aureus; format: cell-based; conditions: Gram+ve, modified Kirby–Bauer disk diffusion, 10 µg/mL
Method: as §1, §2

plasma PGE2 = experiment: Inhibition of plasma PGE2 (EIA) in carrageenan-challenged rats; format: in vivo, rat; conditions: rats n = 8, blood four hours after drug administration, PGE2 EIA kit
Method: (§3) For the determination of the antiphlogistic potency of the synthesized compounds, two standard tests were realized at a dose level 2.5 and 5 mg/kg body weight of the rats, namely the protection against carrageenan-induced edema according to Winter et al. and the inhibition of plasma PGE2. The latter is known as a good confirming indicator for carrageenan-induced rat paw edema. […] For these compounds, a similar activity profile was realized for the inhibition of plasma PGE2.
(§4) Groups of adult male albino rats (150–180 g), each of eight animals were orally dosed with tested compounds at a dose level of 2.5–5 mg/kg one hour before carrageenan challenge. Foot paw edema was induced by subplantar injection of 0.05 cm^3 of a 1% suspension of carrageenan in saline into the plantar tissue of one hind paw. An equal volume of saline was injected to the other hand paw and served as control. Four hours after drug administration the animals were decapitated, blood was collected, and the paws were rapidly excised. The average weight of edema was examined for the treated as well as the control group and the percentage inhibition of weight of edema was also evaluated. Diclofenac potassium (5 mg/kg) was employed as standard reference against which the tested compounds were compared (Table 2).
Heparinized blood samples were collected from rats (n = 8), plasma was separated by centrifugation at 12,000 g for 2 min at […], immediately frozen, and stored at […] until use. The design correlate EIA prostaglandin E2 (PGE2) kit (Aldrich, Steinheim, Germany) is a competitive immuno assay for the quantitative determination of PGE2 in biological fluids. The kit uses a monoclonal antibody to PGE2 to bind, in a competitive manner, the PGE2 in the sample after a simultaneous incubation at room temperature. The excess reagents were washed away and the substrate was added, after a short incubation time the enzyme reaction was stopped, and the yellow color generated was read on a microplate reader DYNATech, MR 5000 at 405 nm (Dynatech Industries Inc., McLean, VA, USA). The intensity of the bound yellow color is inversely proportional to the concentration of PGE2 in either standard or samples.

MCF7 = format: cell-based, human; conditions: MTT, 3 days, 37 °C; at least three experiments; read-out: IC50 against breast cell line MCF7
Method: (§5) The cytotoxicity of the newly synthesized compounds against cancer cell lines in vitro was performed with the MTT assay according to the Mosmann’s method. The MTT assay is based on the reduction of the soluble 3-(4,5-[…]-2-thiazolyl)-2,5-diphenyl-2H-tetrazolium bromide (MTT) into a blue-purple formazan product, mainly by mitochondrial reductase activity inside living cells. The cells used in cytotoxicity assay were cultured in RPMI 1640 medium supplemented with 10% fetal calf serum. Cells suspended in the medium (2 × 10^4 mL^−^1) were plated in 96-well culture plates and incubated at 37 °C in a 5% CO2 incubator. […] The cultured cells were mixed with 20 μL of MTT solution and incubated for 4 h at 37 °C. The supernatant was carefully removed from each well and 100 μL of DMSO were added to each well to dissolve the formazan crystals which were formed by the cellular reduction of MTT. After mixing with a mechanical plate mixer, the absorbance of each well was measured by a microplate reader using a test wavelength of 570 nm. The results were expressed as the IC50, which inducing a 50% inhibition of cell growth of treated cells when compared to the growth of control cells. Each experiment was performed at least three times. There was a good reproducibility between replicate wells with standard errors below 10%.

Escherichia coli = experiment: Agar diffusion antimicrobial test, Escherichia coli; format: cell-based; conditions: Gram−ve, modified Kirby–Bauer disk diffusion, 10 µg/mL
Method: as §1, §2

[1] = system: carrageenan-induced edema; experiment: Carrageenan-induced edema (rat paw test); format: in vivo; conditions: one hour before carrageenan, male albino rats, eight animals per group, paws excised four hours after drug administration
Method: as §3, §4

Aspergillus niger = experiment: Agar diffusion antimicrobial test, Aspergillus niger; format: cell-based; conditions: Fungi, modified Kirby–Bauer disk diffusion, 10 µg/mL
Method: as §1, §2

HS578T = format: cell-based; conditions: MTT, 3 days, 37 °C; at least three experiments; read-out: IC50 against breast cell line HS578T
Method: as §5

MDAMB231 = format: cell-based; conditions: MTT, 3 days, 37 °C; at least three experiments; read-out: IC50 against breast cell line MDAMB231
Method: as §5

MDAMB435 = format: cell-based; conditions: MTT, 3 days, 37 °C; at least three experiments; read-out: IC50 against breast cell line MDAMB435
Method: as §5

## CC(C)C[C@H](NC(=O)c1cncc(C(=O)N[C@@H](CC(C)C)C(=O)N/N=C/c2ccc([N+](=O)[O-])cc2)c1)C(=O)N/N=C/c1ccc([N+](=O)[O-])cc1 [Compound 10d]
Bacillus subtilis
  Inhibition Zome, Bacillus subtilis: 1.85 cm
Staphylococcus aureus
  Inhibition Zome, Staphylococcus aureus: 1.92 cm
Candida albicans
  Inhibition Zome, Candida albicans: 0.96 cm
Bacillus aureus
  Inhibition Zome, Bacillus aureus: 2.00 cm
Plasma PGE2; dose 2.5 mg/kg oral
  % Inhibition of Plasma PGE2: 63.14 ± 0.023%
Plasma PGE2; dose 5.0 mg/kg oral
  % Inhibition of Plasma PGE2: 79.88 ± 0.031%
MCF7
  IC50: 0.00035 µM
Escherichia coli
  Inhibition Zome, Escherichia coli: 0.90 cm
[1]; dose 2.5 mg/kg oral
  % Protection against Edema: 81.00 ± 0.072%
[1]; dose 5.0 mg/kg oral
  % Protection against Edema: 95.82 ± 0.062%
Aspergillus niger
  Inhibition Zome, Aspergillus niger: 2.00 cm
HS578T
  IC50: 5.67 µM
MDAMB231
  IC50: 3.67 µM
MDAMB435
  IC50: 57.5 µM
